According to patent US20230159552A1, “[…] ITS ANALOGUES, METHODS FOR THEIR PREPARATION, AND METHODS OF USE” (priority 2020, published 2023):
Like-named read-outs stand apart in the source and are kept apart here.

Experiments:
HCT116/VM46 = test: Cytotoxicity against HCT116/VM46 cell line (multi-drug resistant variant); format: cell-based, human
Text: (§1) The results of the initial evaluation for cytotoxicity against various cancer cell lines of analogues 38a-f, along with those for 1, 36 and intermediate alcohol 35 are summarized in Table A. L1210 is a murine lymphocytic leukemia cell line. HCT116 and HCT116/VM46 are human colon cancer cell lines, with the latter being a multi-drug resistant variant of the former. MCF-7 is a human breast cancer cell line.

HCT116 = test: Cytotoxicity against HCT116 cell line; format: cell-based, human
Text: as §1

MCF-7 = test: Cytotoxicity against MCF-7 cell line; format: cell-based, human
Text: as §1

L1210 = test: Cytotoxicity against L1210 cell line; format: cell-based; conditions: Mus musculus, murine lymphocytic leukemia cell line
Text: as §1

[1] = HCT-116/VM46, multi-drug resistant human colon cancer cell line, read-out: Cell Line (IC50, nM) HCT116/ VM46
[2] = HCT-116, human colon cancer cell line, read-out: Cell Line (IC50, nM) HCT116
[3] = MCF7, human breast cancer cell line, read-out: Cell Line (IC50, nM) MCT-7

Compound `CC(/C=C/[C@H]1OC(C)(C)C[C@@]2(CO2)[C@@H]1O)=C\C[C@@H]1O[C@H](C)[C@H](NC(=O)/C=C\[C@H](C)OC(=O)N(C)C)C[C@@H]1C` [Compound 38d] has an IC50 (HCT116/VM46; [1]) of 0.53 nM, an IC50 (HCT116; [2]) of 0.54 nM and an IC50 (MCF-7; [3]) of 0.39 nM. It also gave an IC50 (L1210) of 0.58 nM.

In the case of `CC(/C=C/[C@H]1OC(C)(C)C[C@@]2(CO2)[C@@H]1O)=C\C[C@@H]1O[C@H](C)[C@H](NC(=O)/C=C\[C@H](C)OC(=O)N2CCSCC2)C[C@@H]1C` [Compound 38b], the IC50 (HCT116/VM46; [1]) is reported as 0.52 nM, the IC50 (HCT116; [2]) is reported as 0.48 nM and the IC50 (MCF-7; [3]) is reported as 0.42 nM. The IC50 (L1210) was 0.6 nM.

`CC(/C=C/[C@H]1OC(C)(C)C[C@@]2(CO2)[C@@H]1O)=C\C[C@@H]1O[C@H](C)[C@H](NC(=O)/C=C\[C@H](C)OC(=O)N2CCCCC2)C[C@@H]1C` [Compound 38c] was tested, and the IC50 (HCT116/VM46; [1]) was 0.59 nM, the IC50 (HCT116; [2]) was 0.68 nM and the IC50 (MCF-7; [3]) was 2.7 nM. The IC50 (L1210) was 0.44 nM.

In the case of `CC(/C=C/[C@H]1OC(C)(C)C[C@@]2(CO2)[C@@H]1O)=C\C[C@@H]1O[C@H](C)[C@H](NC(=O)/C=C\[C@H](C)OC(=O)c2ccccc2)C[C@@H]1C` [Compound 38e], the IC50 (HCT116/VM46; [1]) is reported as 0.65 nM, the IC50 (HCT116; [2]) is reported as 0.72 nM and the IC50 (MCF-7; [3]) is reported as 2.4 nM. The IC50 (L1210) was 1.8 nM.

Compound `CC(/C=C/[C@H]1OC(C)(C)C[C@@]2(CO2)[C@@H]1O)=C\C[C@@H]1O[C@H](C)[C@H](NC(=O)/C=C\[C@H](C)OC(=O)N2CCOCC2)C[C@@H]1C` [Meayamycin B (38a), Meayamycin B] has an IC50 (HCT116/VM46; Homo sapiens, HCT-116/VM46, read-out: Cell Line (IC50, nM) HCT116/ VM46) of 0.55 nM, an IC50 (HCT116; Homo sapiens, HCT-116, read-out: Cell Line (IC50, nM) HCT116) of 0.49 nM and an IC50 (MCF-7; Homo sapiens, MCF7, read-out: Cell Line (IC50, nM) MCT-7) of 0.39 nM.

`CC(/C=C/[C@H]1OC(C)(C)C[C@@]2(CO2)[C@@H]1O)=C\C[C@@H]1O[C@H](C)[C@H](NC(=O)/C=C\[C@H](C)O)C[C@@H]1C` [Compound 35] gave an IC50 (HCT116/VM46; [1]) of 7.4 nM, an IC50 (HCT116; [2]) of 9.7 nM and an IC50 (MCF-7; [3]) of 47 nM. The IC50 (L1210) was 7.8 nM.

In the case of `CC(/C=C/[C@H]1OC(C)(C)C[C@@]2(CO2)[C@@H]1O)=C\C[C@@H]1O[C@H](C)[C@H](NC(=O)/C=C\[C@H](C)OC(=O)C(C)(C)C)C[C@@H]1C` [Compound 38f], the IC50 (HCT116/VM46; [1]) is reported as 2.4 nM, the IC50 (HCT116; [2]) is reported as 3.5 nM and the “fold less potent than 1” value (HCT116; relative to meayamycin (1), cell line not given) is reported as 5 fold. For the same compound, the IC50 (L1210) was 1.2 nM.

With `CC(=O)O[C@@H](C)/C=C\C(=O)N[C@@H]1C[C@H](C)[C@H](C/C=C(C)/C=C/[C@H]2OC(C)(C)C[C@@]3(CO3)[C@@H]2O)O[C@@H]1C` [Meayamycin (1), Meayamycin, reference compound] the IC50 (HCT116/VM46; [1]) was 0.51 nM, the IC50 (HCT116; [2]) was 0.56 nM and the IC50 (MCF-7; [3]) was 0.31 nM. It also gave an IC50 (L1210) of 0.54 nM.

With `CC(/C=C/[C@H]1OC(C)(C)C[C@@]2(CO2)[C@@H]1O)=C\C[C@@H]1O[C@H](C)[C@H](NC(=O)/C=C\[C@H](C)OC(=O)N2CCN(C)CC2)C[C@@H]1C` [Compound 36] the IC50 (HCT116/VM46; [1]) was 840 nM, the IC50 (HCT116; [2]) was 630 nM and the IC50 (MCF-7; [3]) was 930 nM. For the same compound, the IC50 (L1210) was 790 nM.
